In ChEMBL document CHEMBL1201862, “PubChem BioAssay data set” (2004):
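Each compound was tested at five concentrations against cells in 96-well plates for 48 hours. GI50 is the concentration that inhibits growth by half.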 Active and inactive are the calls of the source. No stated cut-off is given here; in the data, active = GI50 up to about 1.1 µM and inactive = higher.

Tests used:
Assay in all cases: DTP human tumour cell line panel, 48 h
DU-145 = tested on: DU-145
HT-29 = tested on: HT-29
SF-295 = tested on: SF-295
Hs-578T = tested on: Hs-578T
COLO 205 = tested on: COLO 205
PC-3 = tested on: PC-3
SF-268 = tested on: SF-268
786-0 = tested on: 786-0
HOP-62 = tested on: HOP-62
SK-OV-3 = tested on: SK-OV-3
MOLT-4 = tested on: MOLT-4
SF-539 = tested on: SF-539
CAKI-1 = tested on: CAKI-1
NCI-H460 = tested on: NCI-H460
LOX IMVI = tested on: LOX IMVI
SNB-75 = tested on: SNB-75
IGROV-1 = tested on: IGROV-1
TK-10 = tested on: TK-10
BT-549 = tested on: BT-549
SR = tested on: SR

Compound	GI50 (DU-145)	GI50 (HT-29)	GI50 (SF-295)	GI50 (Hs-578T)	GI50 (COLO 205)	GI50 (PC-3)	GI50 (SF-268)	GI50 (786-0)	GI50 (HOP-62)	GI50 (SK-OV-3)	GI50 (MOLT-4)	GI50 (SF-539)	GI50 (CAKI-1)	GI50 (NCI-H460)	GI50 (LOX IMVI)	GI50 (SNB-75)	GI50 (IGROV-1)	GI50 (TK-10)	GI50 (BT-549)	GI50 (SR)
CCOC(=O)c1cnc(-n2[nH]c(C)c(CCO)c2=O)[nH]c1=O	> 100 µM (inactive)	> 100 µM (inactive)	> 100 µM (inactive)	> 100 µM (inactive)	> 100 µM (inactive)	> 100 µM (inactive)	> 100 µM (inactive)	> 100 µM (inactive)	> 100 µM (inactive)	> 100 µM (inactive)	> 100 µM (inactive)	> 100 µM (inactive)	> 100 µM (inactive)	> 100 µM (inactive)	> 100 µM (inactive)	88.3 µM (inactive)	> 100 µM (inactive)	> 100 µM (inactive)		
CS(=O)(=O)c1nc(-c2cc3c(c(S(C)(=O)=O)n2)CCCC3)cc2c1CCCCC2	> 100 µM (inactive)	> 100 µM (inactive)	> 100 µM (inactive)		> 100 µM (inactive)	> 100 µM (inactive)	16.8 µM (inactive)	> 100 µM (inactive)	31.6 µM (inactive)	72.4 µM (inactive)			59.3 µM (inactive)			22.4 µM (inactive)	11.2 µM (inactive)	> 100 µM (inactive)	> 100 µM (inactive)	
Nc1ccc(/C=C/c2ccc3cccnc3c2)cc1	> 100 µM (inactive)	> 100 µM (inactive)	> 100 µM (inactive)	> 100 µM (inactive)	> 100 µM (inactive)	> 100 µM (inactive)	> 100 µM (inactive)	> 100 µM (inactive)	> 100 µM (inactive)	> 100 µM (inactive)	> 100 µM (inactive)	> 100 µM (inactive)	90.8 µM (inactive)	> 100 µM (inactive)	> 100 µM (inactive)	> 100 µM (inactive)		> 100 µM (inactive)		> 100 µM (inactive)
CSc1ncnc2c1cnn2Cc1cnnn1COCC(O)CO (stereo not given)	> 100 µM (inactive)	> 100 µM (inactive)	> 100 µM (inactive)		> 100 µM (inactive)	> 100 µM (inactive)	13.8 µM (inactive)	> 100 µM (inactive)	> 100 µM (inactive)	> 100 µM (inactive)	> 100 µM (inactive)	> 100 µM (inactive)	> 100 µM (inactive)		> 100 µM (inactive)		> 100 µM (inactive)	> 100 µM (inactive)	> 100 µM (inactive)	> 100 µM (inactive)
CSc1cc(Cl)c(C)cc1S(=O)(=O)NC(=O)NNc1cnc2ccccc2n1	> 100 µM (inactive)	> 100 µM (inactive)	> 100 µM (inactive)	> 100 µM (inactive)	> 100 µM (inactive)	> 100 µM (inactive)	> 100 µM (inactive)	> 100 µM (inactive)	> 100 µM (inactive)	> 100 µM (inactive)	17.5 µM (inactive)	> 100 µM (inactive)	> 100 µM (inactive)	> 100 µM (inactive)	> 100 µM (inactive)		> 100 µM (inactive)			> 100 µM (inactive)
CC1=CC[C@@]2(C)CC[C@](O)(C(C)C)C2C(OC(=O)c2ccccc2)C1 (stereo not given in full)	18.1 µM (inactive)	16.7 µM (inactive)	15.6 µM (inactive)	21.2 µM (inactive)	22.1 µM (inactive)	18.7 µM (inactive)	23.2 µM (inactive)	18.5 µM (inactive)	18 µM (inactive)	14.3 µM (inactive)	17.1 µM (inactive)	19.8 µM (inactive)	21.1 µM (inactive)	21.6 µM (inactive)	19.4 µM (inactive)	17.5 µM (inactive)	15.6 µM (inactive)	18.3 µM (inactive)		31.7 µM (inactive)
CN(CCc1ccccn1)C(=S)N/N=C(\c1ccccc1)c1ccccn1	1.41 µM (inactive)	< 0.01 µM (active)	< 0.0266 µM (active)	1.91 µM (inactive)	< 0.01 µM (active)	< 0.01 µM (active)		0.0419 µM (active)	< 0.0215 µM (active)	< 0.01 µM (active)	< 0.01 µM (active)		< 0.01 µM (active)	< 0.01 µM (active)	< 0.01 µM (active)	1.3 µM (inactive)	< 0.01 µM (active)	0.524 µM (active)		0.0489 µM (active)
COc1ccc(-c2cc(C(=O)Nc3cccc(C(F)(F)F)c3)nc(S)n2)cc1		> 100 µM (inactive)	> 100 µM (inactive)		> 100 µM (inactive)		> 100 µM (inactive)	> 100 µM (inactive)	> 100 µM (inactive)	> 100 µM (inactive)	> 100 µM (inactive)	> 100 µM (inactive)	> 100 µM (inactive)	> 100 µM (inactive)	> 100 µM (inactive)	> 100 µM (inactive)	> 100 µM (inactive)	> 100 µM (inactive)		> 100 µM (inactive)
CCOC(=O)c1ccc(NCc2ccc3nc(OC)c(OC)nc3c2)cc1	> 100 µM (inactive)	> 100 µM (inactive)	> 100 µM (inactive)		> 100 µM (inactive)	> 100 µM (inactive)	> 100 µM (inactive)	94.8 µM (inactive)	> 100 µM (inactive)	> 100 µM (inactive)	> 100 µM (inactive)	> 100 µM (inactive)	> 100 µM (inactive)	> 100 µM (inactive)	> 100 µM (inactive)	33.7 µM (inactive)	> 100 µM (inactive)			> 100 µM (inactive)
O=C(O)c1cc2ccc(Cl)cc2c(O)c1C1=CCCCC1		46.1 µM (inactive)	32.3 µM (inactive)		67.8 µM (inactive)		52.2 µM (inactive)	52.8 µM (inactive)	33.7 µM (inactive)	42.7 µM (inactive)	36.4 µM (inactive)	36.6 µM (inactive)	33.2 µM (inactive)	35.8 µM (inactive)	33 µM (inactive)	19.4 µM (inactive)	50 µM (inactive)	63.8 µM (inactive)		57.4 µM (inactive)
COC(=O)C1(C(=O)OC)C/C(C)=C(/C)SCCCS1	> 100 µM (inactive)	> 100 µM (inactive)	> 100 µM (inactive)	> 100 µM (inactive)	> 100 µM (inactive)	64.1 µM (inactive)	> 100 µM (inactive)	> 100 µM (inactive)	> 100 µM (inactive)	> 100 µM (inactive)	44.4 µM (inactive)	> 100 µM (inactive)	> 100 µM (inactive)	> 100 µM (inactive)	> 100 µM (inactive)	28.4 µM (inactive)	> 100 µM (inactive)	> 100 µM (inactive)		81.3 µM (inactive)
Cc1ccc(-n2c(N)c(C#N)c3[nH]nc(N)c3c2=O)cc1	> 100 µM (inactive)	> 100 µM (inactive)	> 100 µM (inactive)	> 100 µM (inactive)	> 100 µM (inactive)	> 100 µM (inactive)	> 100 µM (inactive)	> 100 µM (inactive)	> 100 µM (inactive)	> 100 µM (inactive)	> 100 µM (inactive)	> 100 µM (inactive)	> 100 µM (inactive)	> 100 µM (inactive)	> 100 µM (inactive)	> 100 µM (inactive)	> 100 µM (inactive)	> 100 µM (inactive)		> 10 µM (inactive)
COc1ccc(-c2nc(SCC(=O)N/N=C/c3ccc(O)c(OC)c3)[nH]c2-c2ccc(OC)cc2)cc1	39.8 µM (inactive)	21.9 µM (inactive)	20.2 µM (inactive)		19.8 µM (inactive)	27.1 µM (inactive)	54.6 µM (inactive)	19.8 µM (inactive)	24.6 µM (inactive)	29.4 µM (inactive)		21.4 µM (inactive)	54.3 µM (inactive)	23.2 µM (inactive)	22.8 µM (inactive)	47.5 µM (inactive)		41 µM (inactive)	22.1 µM (inactive)	
CN(C)CCc1ccc(Cl)cc1Cl		> 100 µM (inactive)	> 100 µM (inactive)		> 100 µM (inactive)		> 100 µM (inactive)	> 100 µM (inactive)	> 100 µM (inactive)	> 100 µM (inactive)	> 100 µM (inactive)	> 100 µM (inactive)	> 100 µM (inactive)	> 100 µM (inactive)	> 100 µM (inactive)	28.3 µM (inactive)	> 100 µM (inactive)	> 100 µM (inactive)		> 100 µM (inactive)
O=C1Nc2ccccc2/C1=N/NC(=S)Nc1ccc(Cl)cc1	> 100 µM (inactive)	41 µM (inactive)	23.7 µM (inactive)	> 100 µM (inactive)	40.8 µM (inactive)	33.7 µM (inactive)	31.6 µM (inactive)	22.3 µM (inactive)	34.8 µM (inactive)	38.5 µM (inactive)	26.1 µM (inactive)	29.2 µM (inactive)	11.3 µM (inactive)	15.5 µM (inactive)	27.7 µM (inactive)	33 µM (inactive)	26.6 µM (inactive)	16.1 µM (inactive)		10.8 µM (inactive)
COc1cc2c(cc1OS(C)(=O)=O)N=C[C@@H]1CCCN1C2=O	> 100 µM (inactive)	> 100 µM (inactive)	> 100 µM (inactive)	> 100 µM (inactive)	> 100 µM (inactive)		> 100 µM (inactive)	> 100 µM (inactive)		> 100 µM (inactive)	> 100 µM (inactive)	> 100 µM (inactive)	> 100 µM (inactive)	> 100 µM (inactive)	> 100 µM (inactive)	> 100 µM (inactive)	> 100 µM (inactive)	> 100 µM (inactive)		> 100 µM (inactive)
